{"source": "patent US10203334B2", "about": "“Methods and compositions related to nucleic acid binding assays” (Nubad, LLC, priority 2012, dated 2019)", "key": {"[1]": {"tested_on": "d(GGGGCCCC)2", "assay": "ITC derived binding constant", "details": "50 mM KCl, 10 mM SC, 0.5 mM EDTA (pH 6.0) at 25° C.", "from_the_text": "(§1) Determination of the pKa was done using chemometric analysis of the absorption profiles at various pH values of the covalently attached fluorescein moiety (Kubista, M., et al., (1993) Anal. Chem. 65, 994-998, Kubista, M., et al., (1995) Anal. Chim. Acta. 302, 121-125.2, 3). The pH dependent absorption profile of free fluorescein-neomycin was first analyzed to determine its pKa. […] The electrostatic potential (P) calculated from the shift in pKa, and the ITC derived binding constant (K). Electrostatic potential experiments performed in 100 mM NaCl, 10 mM SC, 0.5 mM EDTA at 25° C. ITC experiments performed in 50 mM KCl, 10 mM SC, 0.5 mM EDTA (pH 6.0) at 25° C. […] Fluorescein-neomycin concentration was 10 μM. Table 1 represents the pKa values determined from the inflection point of the pH dependent absorbance scans of free fluorescein-neomycin, fluorescein-neomycin with one molar equivalent d(CCCCGGGG)2 and d(GGGGCCCC)2. The electrostatic potential (Y) calculated from the shift in pKa, and the ITC derived binding constant (K)."}, "[2]": {"tested_on": "d(CCCCGGGG)2", "assay": "ITC derived binding constant", "details": "50 mM KCl, 10 mM SC, 0.5 mM EDTA (pH 6.0) at 25° C.", "from_the_text": "as §1"}, "[3]": {"tested_on": "E. coli rRNA A-site oligonucleotide (SEQ ID NO. 1)", "assay": "Fluorescence titration of F-neo with bacterial rRNA A-site oligonucleotide and titration of the complex with neomycin", "format": "binding", "details": "1:1 stoichiometric ratio of conjugate and A-site oligonucleotide; pH 7.0", "from_the_text": "This compound F-neo or 42a is a fluorescein conjugate coupled through the 5″ OH position of the ribose ring of neomycin B (H. Xi, E. Davis, N. Ranjan, L. Xue, D. Hyde-Volpe, D. P. Arya, Thermodynamics of nucleic Acid “shape readout” by an aminosugar, Biochemistry. 50 (2011) 9088-9113). E. coli rRNA Asite oligonucleotide (SEQ ID NO. 1, […]) is a synthetic RNA sequence 27 bases long designed to mimic the ribosomal A-site. The A-site oligonucleotide (SEQ ID NO. 1) is titrated into F-neo (42a) to give a concentration dependent loss of fluorescence of F-neo (42a). […]\nThe effect of bacterial A-site oligonucleotide (SEQ ID No. 1) on the fluorescence emission intensity of a fluorescein-neomycin conjugate (F-neo or 42a) is recorded in FIG. 2. […]\nThe F-neo (42a) can be competitively displaced from the A-site RNA oligonucleotide (SEQ ID No. 1) by the addition of non-fluorescent RNA binding drugs. Titrating neomycin into the F-neo (42a):A-site complex increases the fluorescence in a dose dependent manner that saturates at a 1:1 stoichiometric ratio of drug-to-complex. Additionally, a strong signal window, measured as an increase in fluorescence is present at a 3:1 molar ratio, and a maximum change in fluorescence at approximately 10:1 molar ratio. […] Fluorescence emission intensity (517 nm) of 0.3 mM A-site oligonucletide/F-neo complex solution increased with increasing concentration of neomycin. […]"}, "[4]": {"tested_on": "d(GGGGCCCC)2", "assay": "Fluorescein-neomycin fluorescence quenching by DNA duplex", "format": "binding", "details": "1 μM probe, 10 mM SC, 0.5 mM EDTA, pH 6.8", "protocol": "(§2) It has been shown that the fluorescence of a fluorescein-neomycin is quenched when bound to a nucleic acid target. In continued efforts to expand the applications of the fluorescein-neomycin conjugate, a fluorescence quenching study was performed to determine if the quenching of fluorescein-neomycin in the presence of DNA is representative of the neomycin affinity. Previous studies using the duplexes d(GGGGCCCC)2 and d(CCCCGGGG)2 have shown the binding is lower for d(CCCCGGGG)2. This has been shown from the ITC derived binding constants, FID studies, and electrostatic potential studies. […] For this reason the fluorescence quenching of fluorescein-neomycin with d(GGGGCCCC)2 and d(CCCCGGGG)2 was performed at three different buffer salt concentrations. […] Results from this study show here that the fluorescein-neomycin quenching can be applied to screening the 256 GC rich hairpins to identify which sequence neomycin has the highest affinity. Table 2 represents the change in fluorescence (%) values of fluorescein-neomycin with 1rdr d(GGGGCCCC)2 and d(CCCCGGGG)2 in 3 different buffer salt concentrations and the ratio between the change in fluorescence (%) values of F-neo with d(CCCCGGGG)2 compared to d(GGGGCCCC)2. Fluorescein-neomycin=1 μM, Buffer=10 mM SC, 0.5 mM EDTA, and either 50 mM NaCl, 100 mM NaCl, or 150 mM NaCl (pH=6.8). Experiment was performed in triplicate and the results were also polted in FIG. 10 showing the change in fluorescence (%) of fluorescein-neomycin with 1 equivalent d(GGGGCCCC)2 and d(CCCCGGGG)2 in 3 different buffer salt concentrations."}, "[5]": {"tested_on": "d(CCCCGGGG)2", "assay": "Fluorescein-neomycin fluorescence quenching by DNA duplex", "format": "binding", "details": "1 μM probe, 10 mM SC, 0.5 mM EDTA, pH 6.8", "protocol": "as §2"}, "[6]": {"details": "50 mM NaCl, listed as Fluorescein-neomycin"}, "[7]": {"details": "50 mM NaCl, listed as fluorescein-neomycin"}, "[8]": {"details": "150 mM NaCl, listed as Fluorescein-neomycin"}, "[9]": {"details": "150 mM NaCl, listed as fluorescein-neomycin"}}}
{"compound": "NCC1O[C@H](OC2C(O)C(OC3C(O)[C@H](N)CC(N)[C@H]3O[C@H]3OC(CN)[C@@H](O)C(O)C3N)O[C@@H]2CSCCNC(=O)CCSCC(=O)Nc2ccc(-c3c4ccc(=O)cc-4oc4cc(O)ccc34)c(C(=O)O)c2)C(N)C(O)[C@@H]1O", "note": "(stereo partly shown) [F-neo (42a), Neomycin-Fluorescein Conjugate]", "values": [{"measurement": "K (M^−1) × 10^5", "setting": "[1]", "result": "66.3 ± 9.7 (M^−1) × 10^5"}, {"measurement": "K (M^−1) × 10^5", "setting": "[2]", "result": "7.97 ± 10.9 (M^−1) × 10^5"}, {"measurement": "reduction in fluorescence emission intensity", "setting": "[3]", "result": 3, "unit": "fold"}, {"measurement": "ΔF (%) with 1rdr d(GGGGCCCC)2", "setting": "[4]; [6]", "result": "73.97 ± 5.78", "unit": "%"}, {"measurement": "ΔF (%) with 1rdr d(GGGGCCCC)2", "setting": "[4]; [7]", "result": 73, "unit": "%"}, {"measurement": "ΔF (%) with 1rdr d(GGGGCCCC)2", "setting": "[4]; 100 mM NaCl", "result": "49.28 ± 1.12", "unit": "%"}, {"measurement": "ΔF (%) with 1rdr d(GGGGCCCC)2", "setting": "[4]; [8]", "result": "33.88 ± 3.33", "unit": "%"}, {"measurement": "ΔF (%) with 1rdr d(GGGGCCCC)2", "setting": "[4]; [9]", "result": 33, "unit": "%"}, {"measurement": "ΔF (%) with 1rdr d(CCCCGGGG)2", "setting": "[5]; [6]", "result": "47.75 ± 5.60", "unit": "%"}, {"measurement": "ΔF (%) with 1rdr d(CCCCGGGG)2", "setting": "[5]; [7]", "result": 47, "unit": "%"}, {"measurement": "ΔF (%) with 1rdr d(CCCCGGGG)2", "setting": "[5]; 100 mM NaCl", "result": "32.18 ± 0.42", "unit": "%"}, {"measurement": "ΔF (%) with 1rdr d(CCCCGGGG)2", "setting": "[5]; [8]", "result": "20.36 ± 2.76", "unit": "%"}, {"measurement": "ΔF (%) with 1rdr d(CCCCGGGG)2", "setting": "[5]; [9]", "result": 20, "unit": "%"}]}
